Reference: article PMC5007978, “A chemical with proven clinical safety rescues Down-syndrome-related phenotypes in through DYRK1A inhibition” (Disease Models & Mechanisms, 2016)

What was measured:
[1] = test system: calcineurin-NFAT signaling; assay: NFAT-RE promoter luciferase reporter assay (NRE-Luc) in 293T cells; type: cell-based; conditions: IM and PMA (10 nM), 1, 3 and 10 μM
Method: Fig. 5. […] Firefly luciferase activities were measured using One-Glo reagents. Luciferase activity in the sample with reporter plasmid alone was set to 1, and the relative luciferase activities were calculated. Means±s.d. were determined from two independent experiments.
Treatment with IM and phorbol 12-myristate 13-acetate (PMA) induced a dramatic increase in luciferase activity (∼20 fold) as a result of the nuclear translocation of NFATc1 and the subsequent transcriptional activation (Fig. 5B). In this situation, the overexpression of DYRK1A suppressed the stimulatory effect of IM and PMA by 75%, resulting in a 4.5-fold increase in luciferase activity compared with that of the control (Fig. 5B).
The firefly luciferase reporter assay was performed using a One-Glo Assay System (Promega) according to the manufacturer's instructions. The transcriptional activity of NFATc1 in 293T cells was measured with a reporter vector (pGL4.30 luc2P/NFAT-RE/Hygro) (Promega) that expresses the firefly luciferase gene under the control of an NFAT-RE promoter. 293T cells were transfected with the DYRK1A-expressing plasmid and reporter plasmid. On the next day, cells were treated with IM (2.5 μM) and phorbol-12-myristate-13-acetate (10 nM) along with the indicated amounts of inhibitors. Cells were further incubated for 8 h and then cell lysates were harvested to measure luciferase activity.

[2] = biological target: T1, DYRK1A (Homo sapiens, UniProt Q13627); parameters: expressed in transfected cells; host or cells: 293T cells; method as in Ogawa et al., 2010; conditions: ref Ogawa et al., 2010; cited from earlier work
[3] = biological target: T2, DYRK4 (Homo sapiens, UniProt Q9NR20); assay: In vitro kinase assay, recombinant human DYRK4 (Life Technologies); type: biochemical
T2 construct: purchased Life Technologies (Kinase Profiler service)
T2 sequence (Q9NR20 1-520): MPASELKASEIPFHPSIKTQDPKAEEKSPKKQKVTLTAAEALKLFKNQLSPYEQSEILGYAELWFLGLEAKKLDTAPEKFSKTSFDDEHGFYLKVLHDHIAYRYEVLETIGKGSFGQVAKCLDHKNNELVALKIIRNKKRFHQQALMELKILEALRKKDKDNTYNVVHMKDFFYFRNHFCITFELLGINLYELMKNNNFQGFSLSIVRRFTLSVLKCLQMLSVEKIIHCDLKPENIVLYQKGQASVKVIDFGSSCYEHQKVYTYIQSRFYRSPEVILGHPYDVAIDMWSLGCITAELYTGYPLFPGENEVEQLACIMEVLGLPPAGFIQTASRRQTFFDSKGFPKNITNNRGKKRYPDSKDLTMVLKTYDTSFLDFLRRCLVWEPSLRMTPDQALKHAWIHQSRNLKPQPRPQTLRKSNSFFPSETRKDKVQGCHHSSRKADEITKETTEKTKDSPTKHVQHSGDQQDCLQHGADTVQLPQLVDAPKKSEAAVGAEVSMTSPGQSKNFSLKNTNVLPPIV

[4] = biological target: T3, DYRK3 (Homo sapiens, UniProt O43781); assay: In vitro kinase assay, recombinant human DYRK3 (Life Technologies); type: biochemical
T3 construct: purchased Life Technologies (Kinase Profiler service)
T3 sequence (O43781 1-588): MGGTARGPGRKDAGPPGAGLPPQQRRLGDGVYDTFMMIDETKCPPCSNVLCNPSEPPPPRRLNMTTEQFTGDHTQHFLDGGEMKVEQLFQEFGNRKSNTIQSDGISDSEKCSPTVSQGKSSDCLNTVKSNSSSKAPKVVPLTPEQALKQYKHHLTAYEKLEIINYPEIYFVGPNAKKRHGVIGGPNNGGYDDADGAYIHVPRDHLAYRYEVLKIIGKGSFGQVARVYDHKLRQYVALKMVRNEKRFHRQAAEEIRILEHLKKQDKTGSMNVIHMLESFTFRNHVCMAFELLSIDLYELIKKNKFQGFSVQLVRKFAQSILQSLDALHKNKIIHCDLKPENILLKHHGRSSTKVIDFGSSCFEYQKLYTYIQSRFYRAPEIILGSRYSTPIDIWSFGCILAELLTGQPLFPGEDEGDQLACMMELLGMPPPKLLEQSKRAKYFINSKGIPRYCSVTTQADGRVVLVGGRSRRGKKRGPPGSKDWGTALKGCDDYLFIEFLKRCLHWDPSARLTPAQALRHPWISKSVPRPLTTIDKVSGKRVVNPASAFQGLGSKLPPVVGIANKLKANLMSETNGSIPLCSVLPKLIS

[5] = test system: mnb-overexpressing Drosophila; assay: Wing vein (LV5) defect rescue in mnb-overexpressing flies (MS1096-gal4); type: in vivo, Drosophila melanogaster
[6] = biological target: T1, DYRK1A; assay: DYRK1A-mediated Tau (T212) phosphorylation in transfected 293T cells, western blot; type: cell-based; parameters: expressed in transfected cells; host or cells: 293T cells; conditions: 6 h treatment, western blot, estimated, read-out: IC50 on Tau phosphorylation (T212) induced by DYRK1A overexpression

| SMILES | NFATc1-dependent transcriptional activation (NRE-Luc) suppressed by DYRK1A overexpression [1] | DYRK1A inhibitory activity compared with harmine [2] | IC50 [3] | IC50 [4] | concentration required for a similar rescue of wing (LV5) defect [5] | IC50 [6] |
| --- | --- | --- | --- | --- | --- | --- |
| CCN1/C(=C/C(C)=O)Sc2ccc(O)cc21 [INDY] | dose-dependently derepressed | slightly weaker inhibitory activities than harmine |  |  |  |  |
| COc1ccc2c(c1)[nH]c1c(C)nccc12 [harmine] | dose-dependently derepressed |  | 5880 nM | 563 nM | 10 to 25 µM |  |
| CCN1/C(=C/C(C)=O)Sc2ccc(OC(C)=O)cc21 [proINDY] | dose-dependently derepressed | slightly weaker inhibitory activities than harmine |  |  |  | ~2000 nM |
